In patent publication US7566712B2, “Biaryl piperazinyl-pyridine analogues” (Neurogen Corporation, priority 2003, dated 2009):

Molecular target: T1, human capsaicin receptor (Homo sapiens, UniProt Q8NER1)
T1 construct: pBK-CMV expression construct encoding the full length human capsaicin receptor; expressed in transfected cells
Assay: Calcium mobilization assay, determination of antagonist activity (Example 6)
Type: cell-based
Conditions: Table II; IC50 determined as described in Example 6
Summary of the method: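 HEK293 clonal lines stably expressing full-length human capsaicin receptor, loaded with Fluo-3 AM in KRH buffer pH 7.4, 1–2 h at 37 °C. Compounds (1–5 μM final) preincubated 0.5–6 h at room temperature, then capsaicin at its EC50 added. FLIPR/Fluoroskan calcium signal; IC50 as 50% decrease of capsaicin response.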

T1 sequence (Q8NER1 whole entry): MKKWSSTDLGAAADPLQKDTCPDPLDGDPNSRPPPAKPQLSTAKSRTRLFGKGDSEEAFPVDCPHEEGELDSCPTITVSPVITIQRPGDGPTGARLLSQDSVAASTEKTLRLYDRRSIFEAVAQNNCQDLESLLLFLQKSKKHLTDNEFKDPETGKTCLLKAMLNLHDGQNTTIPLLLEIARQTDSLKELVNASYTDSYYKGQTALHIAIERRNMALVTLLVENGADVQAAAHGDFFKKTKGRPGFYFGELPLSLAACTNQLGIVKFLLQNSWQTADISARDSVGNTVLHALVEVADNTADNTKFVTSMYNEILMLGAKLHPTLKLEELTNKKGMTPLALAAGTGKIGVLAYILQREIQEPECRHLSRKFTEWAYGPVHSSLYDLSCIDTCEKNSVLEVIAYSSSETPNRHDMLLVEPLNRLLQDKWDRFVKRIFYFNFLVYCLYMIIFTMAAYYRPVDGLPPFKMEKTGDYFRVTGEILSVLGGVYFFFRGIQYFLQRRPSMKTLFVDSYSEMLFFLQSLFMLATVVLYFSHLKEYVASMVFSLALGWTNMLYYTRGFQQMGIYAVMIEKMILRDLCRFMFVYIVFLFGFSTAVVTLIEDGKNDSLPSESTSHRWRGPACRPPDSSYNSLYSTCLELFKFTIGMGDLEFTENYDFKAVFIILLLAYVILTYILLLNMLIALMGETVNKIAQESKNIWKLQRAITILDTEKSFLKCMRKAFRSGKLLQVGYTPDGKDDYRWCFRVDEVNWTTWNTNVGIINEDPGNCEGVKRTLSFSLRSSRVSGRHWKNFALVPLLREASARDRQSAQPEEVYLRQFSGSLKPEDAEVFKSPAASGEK

**Q.** For `COc1cccc(-c2cc(N3CCN(c4ncccc4Cl)C[C@H]3C)nc(N3CCOCC3)n2)c1` [Example 526, 4-[4-[(2R)-4-(3-chloropyridin-2-yl)-2-methylpiperazin-1-yl]-6-(3-methoxyphenyl)pyrimidin-2-yl]morpholine], which IC50 is on record?
**A.** The IC50 was no more than 1000 nM.

**Q.** How did the IC50 turn out when `Cc1cccnc1N1CCN(c2cc(-c3ccc(OC(F)(F)F)cc3)nc(N3CCOCC3)n2)[C@H](C)C1` [Example 527, 4{4[(2R)-2-methyl-4-(3-methylpyridin-2-yl)piperazin-1-yl]-6-[4-(trifluoromethoxy)phenyl]pyrimidin-2-yl}morpholine] was run?
**A.** The IC50 was no more than 1000 nM.

**Q.** For `C[C@@H]1CN(c2ncccc2C(F)(F)F)CCN1c1cc(-c2ccc(OC(F)(F)F)cc2)nc(N2CCOCC2)n1` [Example 528, 4-{4-{(2R)-2-methyl-4-(3-(trifluoromethyl)pyridin-2-yl]piperazin-1-yl}-6-[4-(trifluoromethoxy)phenyl]pyrimidin-2-yl}morpholine], which IC50 is on record?
**A.** Its IC50 is no more than 1000 nM.

**Q.** For `CCOc1cccc(-c2cc(N3CCN(c4ncccc4C)C[C@H]3C)nc(N3CCOCC3)n2)c1` [Example 529, 4-{4-(3-ethoxyphenyl)-6-[(2R)-2-methyl-4-(3-methylpyridin-2-yl)piperazin-1-yl]pyrimidin-2-yl}morpholine], which IC50 is on record?
**A.** The IC50 was no more than 1000 nM.

**Q.** For `CCOc1cccc(-c2cc(N3CCN(c4ncccc4C(F)(F)F)C[C@H]3C)nc(N3CCOCC3)n2)c1` [Example 530, 4-(4-(3-ethoxyphenyl)-6-{(2R)-2-methyl-4-[3-(trifluoromethyl)pyridin-2-yl]piperazin-1-yl}pyrimidin-2-yl)morpholine], which IC50 is on record?
**A.** Its IC50 is no more than 1000 nM.

**Q.** `CCOc1cccc(-c2cc(N3CCN(c4ncccc4Cl)C[C@H]3C)nc(N3CCOCC3)n2)c1` [Example 531, 4-[4-[(2R)-4-(3-chloropyridin-2-yl)-2-methylpiperazin-1-yl]-6-(3-ethoxyphenyl)pyrimidin-2-yl]morpholine] was tested. Which IC50 did it give?
**A.** Its IC50 is no more than 1000 nM.

**Q.** With `C[C@@H]1CN(c2ncccc2C#N)CCN1c1cc(-c2cccc(OC(F)(F)F)c2)nc(N2CCOCC2)n1` [Example 532, 2-((3R)-3-methyl-4-{2-morpholin-4-yl-6-[3-(trifluoromethoxy)phenyl]pyrimidin-4-yl}piperazin-1-yl)nicotinonitrile] as the molecule, how does the IC50 read?
**A.** Its IC50 is no more than 1000 nM.

**Q.** For `Cc1cccnc1N1CCN(c2cc(-c3cccc(OC(F)(F)F)c3)nc(N3CCOCC3)n2)[C@H](C)C1` [Example 533, 4-{4-[(2R)-2-methyl-4-(3-methylpyridin-2-yl)piperazin-1-yl]-6-[3-(trifluoromethoxy)phenyl]pyrimidin-2-yl}morpholine], which IC50 is on record?
**A.** Its IC50 is no more than 1000 nM.

**Q.** For `C[C@@H]1CN(c2ncccc2C(F)(F)F)CCN1c1cc(-c2cccc(OC(F)(F)F)c2)nc(N2CCOCC2)n1` [Example 534, 4-{4-{(2R)-2-methyl-4-[3-(trifluoromethyl)pyridin-2-yl]piperazin-1-yl}-6-[3-(trifluoromethoxy)phenyl]pyrimidin-2-yl}morpholine], which IC50 is on record?
**A.** Its IC50 is no more than 1000 nM.

**Q.** For `C[C@@H]1CN(c2ncccc2Cl)CCN1c1cc(-c2cccc(OC(F)(F)F)c2)nc(N2CCOCC2)n1` [Example 535, 4-{4-[(2R)-4-(3-chloropyridin-2-yl)-2-methylpiperazin-1-yl]-6-[3-(trifluoromethoxy)phenyl]pyrimidin-2-yl}morpholine], which IC50 is on record?
**A.** Its IC50 is no more than 1000 nM.

**Q.** Which IC50 does the source give for `CSc1cccc(-c2cc(N3CCN(c4ncccc4C#N)C[C@H]3C)nc(N3CCOCC3)n2)c1` [Example 536, 2-((3R)-3-methyl-4-{6-[3-(methylthio)phenyl]-2-morpholin-4-ylpyrimidin-4-yl}piperazin-1-yl)nicotinonitrile] here?
**A.** Its IC50 is no more than 1000 nM.

**Q.** For `CSc1cccc(-c2cc(N3CCN(c4ncccc4C)C[C@H]3C)nc(N3CCOCC3)n2)c1` [Example 537, 4-{4-[(2R)-2-methyl-4-(3-methylpyridin-2-yl)piperazin-1-yl]-6-[3-(methylthio)phenyl]pyrimidin-2-yl}morpholine], which IC50 is on record?
**A.** The IC50 was no more than 1000 nM.

**Q.** For `CSc1cccc(-c2cc(N3CCN(c4ncccc4C(F)(F)F)C[C@H]3C)nc(N3CCOCC3)n2)c1` [Example 538, 4-(4-[3-(methylthio)phenyl]-6-{(2R)-2-methyl-4-[3-(trifluoromethyl)pyridin-2-yl]piperazin-1-yl}pyrimidin-2-yl)morpholine], which IC50 is on record?
**A.** Its IC50 is no more than 1000 nM.

**Q.** For `CSc1cccc(-c2cc(N3CCN(c4ncccc4Cl)C[C@H]3C)nc(N3CCOCC3)n2)c1` [Example 539, 4-{4-[(2R)-4-(3-chloropyridin-2-yl)-2-methylpiperazin-1-yl]-6-[3-(methylthio)phenyl]pyrimidin-2-yl}morpholine], which IC50 is on record?
**A.** Its IC50 is no more than 1000 nM.

**Q.** With `COc1ccc(-c2cc(N3CCN(c4ncccc4C)C[C@H]3C)nc(N3CCOCC3)n2)cc1F` [Example 540, 4-{4-(3-fluoro-4-methoxyphenyl)-6-[(2R)-2-methyl-4-(3-methylpyridin-2-yl)piperazin-1-yl]pyrimidin-2-yl}morpholine] as the molecule, how does the IC50 read?
**A.** The IC50 was no more than 1000 nM.

**Q.** With `COc1ccc(-c2cc(N3CCN(c4ncccc4C(F)(F)F)C[C@H]3C)nc(N3CCOCC3)n2)cc1F` [Example 541, 4-(4-(3-fluoro-4-methoxyphenyi)-6-{(2R)-2-methyl-4-[3-(trifluoromethyl)pyridin-2-yl]piperazin-1-yl}pyrimidin-2-yl)morpholine] as the molecule, how does the IC50 read?
**A.** Its IC50 is no more than 1000 nM.

**Q.** For `COc1ccc(-c2cc(N3CCN(c4ncccc4Cl)C[C@H]3C)nc(N3CCOCC3)n2)cc1F` [Example 542, 4-[4-[(2R)-4-(3-chloropyridin-2-yl)-2-methylpiperazin-1-yl]-6-(3-fluoro-4-methoxyphenyl)pyrimidin-2-yl]morpholine], which IC50 is on record?
**A.** The IC50 was no more than 1000 nM.

**Q.** With `Cc1cccnc1N1CCN(c2cc(-c3cccc(OC(C)C)c3)nc(N3CCOCC3)n2)[C@H](C)C1` [Example 543, 4{4-(3-isopropoxyphenyl)-6-[(2R)-2-methyl-4-(3-methylpyridin-2-yl)piperazin-1-yl]pyrimidin-2-yl}morpholine] as the molecule, how does the IC50 read?
**A.** The IC50 was no more than 1000 nM.

**Q.** For `CC(C)Oc1cccc(-c2cc(N3CCN(c4ncccc4Cl)C[C@H]3C)nc(N3CCOCC3)n2)c1` [Example 544, 4-[4-[(2R)-4-(3 chloropyridin-2-yl)-2-methylpiperazin-1-yl]-6-(3-isopropoxyphenyl)pyrimidin-2-yl]morpholine], which IC50 is on record?
**A.** Its IC50 is no more than 1000 nM.

**Q.** `Fc1ccc(-c2cc(N3CCN(c4ncccc4C(F)(F)F)CC3)nc(O[C@H]3CCOC3)n2)cc1Cl` [Example 545, 4-(3-chloro-4-fluorophenyl)-2-[(3S)-tetrahydrofuran-3-yloxy]-6-{4-[3-(trifluoromethyl)pyridin-2-yl]piperazin-1-yl}pyrimidine] was tested. Which IC50 did it give?
**A.** The IC50 was no more than 1000 nM.

**Q.** For `Fc1ccc(-c2cc(N3CCN(c4ncccc4C(F)(F)F)CC3)nc(N3CCNCC3)n2)cc1Cl` [Example 546, 4-(3-chloro-4-fluorophenyl)-2-piperazin-1-yl-6-{4-[3-(trifluoromethyl)pyridin-2-yl]piperazin-1-yl}pyrimidine], which IC50 is on record?
**A.** Its IC50 is no more than 1000 nM.

**Q.** Which IC50 does the source give for `CCCN1CCN(c2nc(-c3ccc(F)c(Cl)c3)cc(N3CCN(c4ncccc4C(F)(F)F)CC3)n2)CC1` [Example 547, 4-(3-chloro-4-fluorophenyl)-2-(4-propylpiperazin-1-yl)-6-{4-[3-(trifluoromethyl)pyridin-2-yl]piperazin-1-yl}pyrimidine] here?
**A.** The IC50 was no more than 1000 nM.

**Q.** With `COC(CN(C)c1nc(-c2ccc(F)c(Cl)c2)cc(N2CCN(c3ncccc3C(F)(F)F)CC2)n1)OC` [Example 548, 4-(3-chloro-4-fluorophenyl)-N-(2,2-dimethoxyethyl)-N-methyl-6-{4-[3-(trifluoromethyl)pyridin-2-yl]piperazin-1-yl}pyrimidin-2-amine] as the molecule, how does the IC50 read?
**A.** The IC50 was no more than 1000 nM.

**Q.** `CN(CCO)c1nc(-c2ccc(F)c(Cl)c2)cc(N2CCN(c3ncccc3C(F)(F)F)CC2)n1` [Example 549, 2-[(4-(3-chloro-4-fluorophenyl)-6-{4-[3-(trifluoromethyl)pyridin-2-yl]piperazin-1-yl}pyrimidin-2-yl)(methyl)amino]ethanol] was tested. Which IC50 did it give?
**A.** The IC50 was no more than 1000 nM.

**Q.** Which IC50 does the source give for `COC[C@@H]1CCCN1c1nc(-c2ccc(F)c(Cl)c2)cc(N2CCN(c3ncccc3C(F)(F)F)CC2)n1` [Example 550, 4-(3-chloro-4-fluorophenyl)-2-[(2S)-2-(methoxymethyl)pyrrolidin-1-yl]-6-{4-[3-(trifluoromethyl)pyridin-2-yl]piperazin-1-yl}pyrimidine] here?
**A.** Its IC50 is no more than 1000 nM.

**Q.** With `O=C(O)[C@@H]1CCCN1c1nc(-c2ccc(F)c(Cl)c2)cc(N2CCN(c3ncccc3C(F)(F)F)CC2)n1` [Example 552, 1-(4-(3-chloro-4-fluorophenyl)-6-{4-[3-(trifluoromethyl)pyridin-2-yl]piperazin-1-yl}pyrimidin-2-yl)-L-proline] as the molecule, how does the IC50 read?
**A.** Its IC50 is no more than 1000 nM.

**Q.** For `Fc1ccc(-c2cc(N3CCN(c4ncccc4C(F)(F)F)CC3)nc(OCC3CC3)n2)cc1Cl` [Example 553, 4-(3-chloro-4-fluorophenyl)-2-(cyclopropylmethoxy)-6-{4-[3-(trifluoromethyl)pyridin-2-yl]piperazin-1-yl}pyrimidine], which IC50 is on record?
**A.** Its IC50 is no more than 1000 nM.

**Q.** With `COCCOc1nc(-c2ccc(F)c(Cl)c2)cc(N2CCN(c3ncccc3C(F)(F)F)CC2)n1` [Example 554, 4-(3-chloro-4-fluorophenyl)-2-(2-methoxyethoxy)-6-{4-[3-(trifluoromethyl)pyridin-2-yl]piperazin-1-yl}pyrimidine] as the molecule, how does the IC50 read?
**A.** The IC50 was no more than 1000 nM.

**Q.** `COCCCOc1nc(-c2ccc(F)c(Cl)c2)cc(N2CCN(c3ncccc3C(F)(F)F)CC2)n1` [Example 555, 4-(3-chloro-4-fluorophenyl)-2-(3-methoxypropoxy)-6-{4-[3-(trifluoromethyl)pyridin-2-yl]piperazin-1-yl}pyrimidine] was tested. Which IC50 did it give?
**A.** Its IC50 is no more than 1000 nM.

**Q.** With `Fc1ccc(-c2cc(N3CCN(c4ncccc4C(F)(F)F)CC3)nc(OCC3CCCO3)n2)cc1Cl` (stereo not shown) [Example 556, 4-(3-chloro-4-fluorophenyl)-2-(tetrahydrofuran-2-ylmethoxy)-6-{4-[3-(trifluoromethyl)pyridin-2-yl]piperazin-1-yl}pyrimidine] as the molecule, how does the IC50 read?
**A.** Its IC50 is no more than 1000 nM.

**Q.** Which IC50 does the source give for `Fc1ccc(-c2cc(N3CCN(c4ncccc4C(F)(F)F)CC3)nc(OC3CCOCC3)n2)cc1Cl` [Example 557, 4-(3-chloro-4-fluorophenyl)-2-(tetrahydro-2H-pyran-4-yloxy)-6-{4-[3-(trifluoromethyl)pyridin-2-yl]piperazin-1-yl}pyrimidane] here?
**A.** Its IC50 is no more than 1000 nM.
